For one assay, the target named is T1, human FSHR (Homo sapiens, UniProt P23945).
T1 sequence (P23945 18-695): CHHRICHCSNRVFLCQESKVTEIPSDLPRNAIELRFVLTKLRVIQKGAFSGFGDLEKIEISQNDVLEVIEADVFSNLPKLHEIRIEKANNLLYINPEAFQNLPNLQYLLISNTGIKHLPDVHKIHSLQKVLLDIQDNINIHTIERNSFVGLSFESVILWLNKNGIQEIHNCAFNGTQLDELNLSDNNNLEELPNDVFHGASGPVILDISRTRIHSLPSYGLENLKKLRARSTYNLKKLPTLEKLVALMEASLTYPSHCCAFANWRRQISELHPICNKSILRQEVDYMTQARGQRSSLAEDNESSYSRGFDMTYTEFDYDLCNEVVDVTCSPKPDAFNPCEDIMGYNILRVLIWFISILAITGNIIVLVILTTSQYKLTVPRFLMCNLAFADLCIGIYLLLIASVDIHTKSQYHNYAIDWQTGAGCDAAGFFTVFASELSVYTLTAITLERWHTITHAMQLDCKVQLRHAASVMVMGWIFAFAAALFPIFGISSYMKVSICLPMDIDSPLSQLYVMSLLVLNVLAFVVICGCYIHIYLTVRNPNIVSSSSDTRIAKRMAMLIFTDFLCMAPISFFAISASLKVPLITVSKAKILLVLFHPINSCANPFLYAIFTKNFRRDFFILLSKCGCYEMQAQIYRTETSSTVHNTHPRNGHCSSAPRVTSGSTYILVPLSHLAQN
The assay is described as follows: HitHunter cAMP XS+ assay, cAMP Hunter cell line FSHR. The format is cell-based. The following applies: for RLU: replicates (1),(2). From the text: Results are reported as raw RLU values and represent the
mean ± SEM of 2 technical replicates.

For assay [1], the system named is female gubernaculum (mouse RXFP2 receptor in vivo). The assay is described as follows: Gubernaculum development in female embryos of treated pregnant mice (histology). The following applies: 30 mg/kg IP to pregnant females, E12.5 to E17.5. The procedure: The INSL3 surge that drives gubernaculum development during the transabdominal stage of testicular descent in male mice occurs between embryonic day E14.5 and 17.5[5],[6],[41]. In females, there is no detectable INSL3 expression and therefore the gubernaculum remains underdeveloped as a vestigial structure. […] Therefore, we hypothesized that the small molecule agonists of RXFP2 would show similar effects in female mice. Compound activity was tested by injecting pregnant females with the RXFP2 agonists starting from day E12.5 to E17.5 of embryonic development followed by histological evaluation of the gubernaculum in developing female embryos. […] At E18.5 the processus vaginalis or outpouching of the peritoneum occurs in males at the site of gubernacular caudal connection[43] (Fig. 3a). […] No differences were detected in the position of the ovaries in compound-treated female embryos and controls.
Fig. 3 RXFP2 agonists are biologically active and selective in vivo. a Diagram of the treatment protocol and representative histological section of the developed male gubernaculum at embryonic day 18.5 (upper left). b Representative histological sections showing a male-like invagination of the female gubernaculum in all compound-treated embryos (blue arrows). Four female embryos were analyzed per group. Scale bar = 100 µm. […]

Each structure is given as a SMILES string. “And” between values parts separate entries of the source, which are not always exact repeats. Equal entries are not always repeated.

As to `O=C1Nc2ccc(-c3cc(C(F)(F)F)cc(C(F)(F)F)c3)cc2C(=O)N2CCN(C(=O)COc3ccc(OC(F)(F)F)cc3I)C[C@@H]12` [compound 6641], on human FSHR (Hit Hunter cAMP assay), the “cAMP response through FSHR” value is on record as “did not result in an increase of cAMP level”. For the same compound, the RLU on human FSHR (Log [M] -4.70) is 1000 RLU and 1200 RLU; at human FSHR (Log [M] -5.18) it was 1080 RLU; at human FSHR (Log [M] -5.65), 960 RLU and 1040 RLU; at human FSHR (Log [M] -6.13), 880 RLU and 920 RLU; at human FSHR (Log [M] -6.61) it was 840 RLU and 960 RLU; at human FSHR (Log [M] -7.08), 960 RLU and 1040 RLU. Besides, the RLU on human FSHR (Log [M] -7.56) was 1280 RLU and 720 RLU; at human FSHR (Log [M] -8.04), 880 RLU and 960 RLU; at human FSHR (Log [M] -8.52), 1040 RLU and 1080 RLU; at human FSHR (Log [M] -8.99), 720 RLU and 880 RLU. Further, the “gubernaculum phenotype of female embryos at E18.5” value in assay [1] is listed as “male-like invagination of the gubernaculum”.

These data come from publication PMC9636434, “Discovery of small molecule agonists of the Relaxin Family Peptide Receptor 2” (Communications Biology, 2022).
